Measurements taken from US8841321B2, “Quinoline derivatives as antibacterial agents” (Janssen Pharmaceutica NV, priority 2005, dated 2014).
Values after ≈ are worked out from the molar mass of the structure shown.

What was measured:
Experiment in all cases: Microtitre plate assay, IC90 determination
Type in all cases: cell-based
[1] = test system: STA 29213 (Staphylococcus aureus (ATCC29213)); conditions: for IC90 (μg/ml) STA 29213: Staphylococcus aureus (ATCC29213); for IC90: Staphylococcus aureus, ATCC29213, Staphylococcus aureus (ATCC29213), read-out: IC90 (μg/ml) STA 29213
Summary of the method: (§1)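 Growth-inhibition endpoint: resazurin added 3 h after inoculation, plates incubated overnight, fluorescence at 530/590 nm after 24 h at 37 °C. Inocula of roughly 10–60 CFU per well in Mueller-Hinton medium; compounds titrated five-fold. IC90 reported as μg/ml.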

[2] = test system: SPN 6305 (Streptococcus pneumoniae (ATCC6305)); conditions: for IC90 (μg/ml) SPN 6305: Streptococcus pneumoniae (ATCC6305); for IC90: Streptococcus pneumoniae, ATCC6305, Streptococcus pneumoniae (ATCC6305), read-out: IC90 (μg/ml) SPN 6305
Summary of the method: as §1

[3] = test system: EFA 29212 (Enterococcus faecalis (ATCC29212)); conditions: for IC90 (μg/ml) EFA 29212: Enterococcus faecalis (ATCC29212); for IC90: Enterococcus faecalis, ATCC29212, Enterococcus faecalis (ATCC29212), read-out: IC90 (μg/ml) EFA 29212
[4] = test system: SPY 8668 (Streptococcus pyogens (ATCC8668)); conditions: for IC90 (μg/ml) SPY 8668: Streptococcus pyogens (ATCC8668); for IC90: Streptococcus, ATCC8668, Streptococcus pyogens (ATCC8668), read-out: IC90 (μg/ml) SPY 8668
[5] = test system: PAE 27853 (Pseudomonas aeruginosa (ATCC27853)); conditions: for IC90 (μg/ml) PAE 27853: Pseudomonas aeruginosa (ATCC27853); for IC90: Pseudomonas aeruginosa, ATCC27853, Pseudomonas aeruginosa (ATCC27853), read-out: IC90 (μg/ml) PAE 27853
[6] = test system: STA RMETH (methicilline resistant Staphylococcus aureus (MRSA), a clinical isolate from the University of Antwerp); conditions: for IC90: Staphylococcus aureus, MRSA, read-out: IC90 (μg/ml) STA RMETH

SMILES	IC90 (μg/ml) STA 29213 [1] [µg/mL]	IC90 (μg/ml) SPN 6305 [2] [µg/mL]	IC90 (μg/ml) EFA 29212 [3] [µg/mL]	IC90 (μg/ml) SPY 8668 [4] [µg/mL]	IC90 (μg/ml) PAE 27853 [5] [µg/mL]	IC90 [6] [µg/mL]	IC90 [2] [µg/mL]	IC90 (μg/ml) STA RMETH [6] [µg/mL]	IC90 [3] [µg/mL]	IC90 [4] [µg/mL]	IC90 [5] [µg/mL]	IC90 [1] [µg/mL]
COc1nc2ccccc2cc1C(c1ccccc1)C(O)(CCCCN(C)C)c1ccc2ccccc2c1 (centres unmarked) [Compound 37]	2.0 (≈ 3.96 µM)	1.8 (≈ 3.57 µM)				10.1 (≈ 20 µM)						
COc1nc2ccc(-c3ccco3)cc2cc1C(c1ccccc1)C(O)(CCCCN(C)C)c1ccc2ccccc2c1 (centres unmarked) [Compound 39]	2.0 (≈ 3.5 µM)	3.6 (≈ 6.31 µM)				4.5 (≈ 7.88 µM)						
COc1nc2ccccc2cc1C(c1ccc(-c2ccccc2)cc1)C(O)(CCCCN(C)C)c1ccc2ccccc2c1 (centres unmarked) [Compound 56]	1.84 (≈ 3.17 µM)						2.31 (≈ 3.98 µM)	5.81 (≈ 10 µM)				
COc1nc2ccccc2cc1C(c1ccc(-c2ccccc2)cc1)C(O)(CCCCN(C)C)c1ccc2ccccc2c1 (centres unmarked) [Compound 57]	4.11 (≈ 7.08 µM)	2.31 (≈ 3.98 µM)						2.59 (≈ 4.46 µM)				
COc1nc2ccc(Br)cc2cc1C(c1ccccc1)C(O)(CCCCCN(C)C)c1ccc2ccccc2c1 (centres unmarked) [Compound 59]	0.8 (≈ 1.34 µM)	0.84 (≈ 1.41 µM)							1.89 (≈ 3.16 µM)	2.12 (≈ 3.55 µM)	1.89 (≈ 3.16 µM)	
COc1nc2ccccc2cc1C(c1ccc(Br)cc1)C(O)(CCCCN(C)C)c1ccc2ccccc2c1 (centres unmarked) [Compound 64]	1.85 (≈ 3.17 µM)	1.85 (≈ 3.17 µM)							1.85 (≈ 3.17 µM)	1.85 (≈ 3.17 µM)	0.46 (≈ 0.788 µM)	
CNCCCC(O)(c1ccc(F)cc1)C(c1ccccc1)c1cc2cc(Br)ccc2nc1OC (centres unmarked) [Compound 69]	1.7 (≈ 3.25 µM)			6.59 (≈ 12.6 µM)			1.65 (≈ 3.15 µM)		9.3 (≈ 17.8 µM)		7.39 (≈ 14.1 µM)	

More lines, now with the values ahead:

IC90 (μg/ml) STA 29213 [1] [µg/mL]	IC90 (μg/ml) SPN 6305 [2] [µg/mL]	IC90 (μg/ml) EFA 29212 [3] [µg/mL]	IC90 (μg/ml) SPY 8668 [4] [µg/mL]	IC90 (μg/ml) PAE 27853 [5] [µg/mL]	IC90 [6] [µg/mL]	IC90 [2] [µg/mL]	IC90 (μg/ml) STA RMETH [6] [µg/mL]	IC90 [3] [µg/mL]	IC90 [4] [µg/mL]	IC90 [5] [µg/mL]	IC90 [1] [µg/mL]	SMILES
0.4 (≈ 0.652 µM)	1.22 (≈ 1.99 µM)	1.94 (≈ 3.16 µM)	0.87 (≈ 1.42 µM)	0.87 (≈ 1.42 µM)								COc1ccc(C(c2cc3cc(Br)ccc3nc2OC)C(O)(CCCCN(C)C)c2ccc3ccccc3c2)cc1 (single isomer, unassigned) [Compound 158]
1.85 (≈ 3.17 µM)	0.41 (≈ 0.703 µM)	1.85 (≈ 3.17 µM)	1.47 (≈ 2.52 µM)	1.85 (≈ 3.17 µM)								COc1nc2ccccc2cc1C(c1cccc(Br)c1)C(O)(CCCCN(C)C)c1ccc2ccccc2c1 (single isomer, unassigned) [Compound 159]
2.19 (≈ 3.55 µM)	2.46 (≈ 3.98 µM)	1.95 (≈ 3.16 µM)	1.95 (≈ 3.16 µM)	1.95 (≈ 3.16 µM)								COc1ccc(C(O)(CCCCN2CCCCC2)C(c2ccc(C)cc2)c2cc3cc(Br)ccc3nc2OC)cc1 (single isomer, unassigned) [Compound 168]
21.57 (≈ 35.5 µM)	9.64 (≈ 15.9 µM)	9.64 (≈ 15.9 µM)	9.64 (≈ 15.9 µM)	9.64 (≈ 15.9 µM)								COc1nc2ccc(Br)cc2cc1C(c1ccc(Cl)cc1)C(O)(CCCCN1CCCCC1)c1ccccc1 (single isomer, unassigned) [Compound 170]
2.03 (≈ 3.16 µM)	0.91 (≈ 1.42 µM)	2.03 (≈ 3.16 µM)	0.91 (≈ 1.42 µM)	2.03 (≈ 3.16 µM)								COc1nc2ccc(Br)cc2cc1C(c1ccc(Cl)c(Cl)c1)C(O)(CCCCN1CCCCC1)c1ccccc1 (single isomer, unassigned) [Compound 173]
					2.55 (≈ 3.99 µM)	2.55 (≈ 3.99 µM)					2.02 (≈ 3.16 µM)	CCN(CC)CCCCC(O)(CCc1cccc2ccccc12)C(c1ccccc1)c1cc2cc(Br)ccc2nc1OC (centres unmarked) [Compound 73]
1.98 (≈ 3.17 µM)	1.98 (≈ 3.17 µM)	1.98 (≈ 3.17 µM)	1.98 (≈ 3.17 µM)	1.98 (≈ 3.17 µM)								COc1nc2ccc(Br)cc2cc1C(c1ccccc1)C(O)(CCCCN1CCNCC1)c1ccc2ccccc2c1 (centres unmarked) [Compound 106]
	0.39 (≈ 0.624 µM)							1.98 (≈ 3.17 µM)	1.98 (≈ 3.17 µM)	1.98 (≈ 3.17 µM)	1.98 (≈ 3.17 µM)	COc1nc2ccc(Br)cc2cc1C(c1ccccc1)C(O)(CCCCN1CCNCC1)c1ccc2ccccc2c1 (centres unmarked) [Compound 107]
